Experimental findings from patent US6849598B1, “Therapeutic compositions comprising bactericidal/permeability-increasing (BPI) protein products” (XOMA, priority 1995, dated 2005) are described below.

The experiment has as its system P. aeruginosa (ATCC 19660). The experiment in a line: Antibiotic susceptibility (MIC, Microscan® MIC Plus Type 2 panel) with rBPI21/P123 and EDTA. Format: cell-based. Also noted: key to susceptibility interpretation of MIC (superscript): R: resistant; I: intermediate; S: susceptible. The following applies: for effect of EDTA added to the rBPI21/P123 formulation on susceptibility of the strain to the antibiotic: summary of Table 17. On the procedure: In additional experiments, a BPI protein product, rBPI21, was formulated with an anti-bacterial activity enhancing poloxamer, specifically PLURONIC P123, and with various concentrations of EDTA, and was evaluated for its effect on the antibiotic susceptibility of a Pseudomonas aeruginosa (ATCC 19660). Antibiotic susceptibility was determined using Microscan® panel plates (Dade Microscan, West Sacramento, Calif.) that allow simultaneous determination of minimum inhibitory concentrations for a number of different antibiotics.
The antimicrobial susceptibility tests performed on the Microscan® panel plates are miniaturizations of the broth dilution susceptibility test. Antimicrobial agents are serially diluted in Mueller-Hinton broth (supplemented with calcium and magnesium, or with sodium chloride for oxacillin, or with thymidine phosphorylase for trimethoprim, sulfamethoxazole and trimethoprim/ sulfamethoxazole) to concentrations bridging the range of clinical interest. One well on the 96-well Microscan® plate is a growth control well that contains dehydrated broth only. The remaining wells contain dehydrated broth and antibiotic (or broth and biochemical reagent indicator), which is rehydrated to the desired concentration by inoculation of a standardized suspension of test organism. The chromogenic biochemical agent indicators are used to identify and characterize the species of bacteria based on detection of pH changes and substrate utilization. […] Gram-negative and gram positive organisms may be tested using any of the Microscan® panel plates (Microscan®, Dade Microscan, West Sacramento, Calif.). In these experiments with P. aeruginosa, the MIC Plus Type 2 panel plates were used. The concentrations of antibiotics tested in this panel plate are shown below in Table 16. The antibiotic susceptibility standards (interpretation of an MIC as resistant, intermediate or susceptible according to Microscan®'s NCCLS-derived standards) applicable to the gram-negative organisms that may be tested in each panel plate appear below in Table 16A.
For these experiments with P. aeruginosa, the following procedure was performed: The organism was streaked onto TSA plates (Remel, Lenexa, Kans.) and incubated for 18-24 hours overnight. Well-isolated A, colonies from the plates were emulsified in 3 ml of sterile Inoculum Water d(catalog no. B1015-2, MicrosScan® system, Dade Microscan, West Sacramento, Calif.) to a final turbidity equivalent to 0.5 McFarland Barium Sulfate standard. This cell suspension was vortexed for 2 to 3 seconds and 100 μl was transferred to glass tubes containing 25 ml of Inoculum Water with Pluronic-D (catalog no. B1015-7, MicroScan® system, Dade Microscan, West Sacramento, Calif.) (hereinafter “Pluronic Inoculum Water”), or 25 ml of Pluronic Inoculum Water into which rBPI21 in 0.2% PLURONIC P123, 0.002% TWEEN 80, 5mM sodium citrate, 150 mM NaCl (“rBPI21/P123”) had been diluted to 64 μg/ml rBPI21.
The 25 ml of this inoculum containing rBPI21 was mixed by inversion and poured into a tray. The inoculum was drawn up into a manual 96-well pipetting system (RENOK^− rehydrator-inoculator system, Dade Microscan, West Sacramento, Calif.) designed for use with the Microscan® panel plates, and 110 μl of the inoculum was delivered to each well of a Microscan® MIC Plus Type 2 panel plate. When added to the wells, this inoculum achieves a final bacterial concentration of 4×10^5 to 7×10^5 CFU/ml. The panel plates were then incubated at 35° C. for 15-24 hours and read visually for cell growth.
No growth was defined as a slight whiteness in the well or a clear broth. Growth appeared as turbidity which could take the form of a white haze throughout the well, a white button in the center of the well, or a fine granule growth throughout the well. All wells were read against a black indirectly lighted background. Visual results of the biochemical reactions were read into a database for bacterial identification.

Setting [1] is: rBPI21/P123 at 64 μg/ml rBPI21, With 0% EDTA.
Where [2] appears, read: rBPI21/P123 at 64 μg/ml rBPI21, With 0.01% EDTA.
The mark [3] stands for this setting: rBPI21/P123 at 64 μg/ml rBPI21, With 0.05% EDTA.
The mark [4] stands for this setting: rBPI21/P123 at 64 μg/ml rBPI21, With 0.1% EDTA.

Regarding `CC1(C)S[C@@H]2[C@H](NC(=O)[C@H](NC(=O)N3CCNC3=O)c3ccccc3)C(=O)N2[C@H]1C(=O)O` [Azlocillin], the “Minimum Inhibitory Concentration of Antibiotic” value (shortened to “Minimum Inhibitory Concentration”) is below 64 µg/mL (Control (No BPI21)); below 64 µg/mL under setting [1]; below 64 µg/mL under setting [2]; below 64 µg/mL under setting [3]; below 64 µg/mL under setting [4]. For the same molecule, the “susceptibility interpretation of MIC (superscript)” value (“susceptibility interpretation” below) is recorded as “S” (Control (No BPI21)); “S” under setting [1]; “S” under setting [2]; “S” under setting [3]; “S” under setting [4].
Take `C[C@H]1[C@H](NC(=O)/C(=N\OC(C)(C)C(=O)O)c2csc(N)n2)C(=O)N1S(=O)(=O)O` [Aztreonam]: the “effect of EDTA added to the rBPI21/P123 formulation on susceptibility of the strain to the antibiotic” value (shortened to “effect of EDTA added”) is given as “increasing the susceptibility”. Moreover, under “Control (No BPI21)”, the “Minimum Inhibitory Concentration” value turned out to be 4 µg/mL and the “susceptibility interpretation” value was “S”. For the same molecule, under setting [1], the “Minimum Inhibitory Concentration” value was found to be 4 µg/mL and the “susceptibility interpretation” value is “S”. Besides, under setting [2], the “Minimum Inhibitory Concentration” value was below 1 µg/mL and the “susceptibility interpretation” value is recorded as “S”. For the same molecule, under setting [3], the “Minimum Inhibitory Concentration” value is 2 µg/mL and the “susceptibility interpretation” value is recorded as “S”. Besides, under setting [4], the “Minimum Inhibitory Concentration” value is below 1 µg/mL and the “susceptibility interpretation” value is listed as “S”.
`CC1(C)S[C@@H]2[C@H](NC(=O)C(C(=O)O)c3ccccc3)C(=O)N2[C@H]1C(=O)O` (stereo partly shown) [Carbenicillin]: the “Minimum Inhibitory Concentration” value by setting is: (Control (No BPI21)) 32 µg/mL; under setting [1], below 16 µg/mL; under setting [2], below 16 µg/mL; under setting [3], below 16 µg/mL; under setting [4], below 16 µg/mL. For the same molecule, the “susceptibility interpretation” value (Control (No BPI21)) is given as “I”; the “susceptibility interpretation” value under setting [1] is listed as “S”; the “susceptibility interpretation” value under setting [2] is given as “S”; the “susceptibility interpretation” value under setting [3] is recorded as “S”; the “susceptibility interpretation” value under setting [4] is given as “S”.
Turning to `Cn1nnnc1SCC1=C(C(=O)O)N2C(=O)[C@@H](NC(=O)[C@H](O)c3ccccc3)[C@H]2SC1` [Cefamandole], the “effect of EDTA added” value is recorded as “reversing resistance”. For the setting “Control (No BPI21)”, the “Minimum Inhibitory Concentration” value is above 32 µg/mL and the “susceptibility interpretation” value was “R”. Also, under setting [1], the “Minimum Inhibitory Concentration” value was above 32 µg/mL and the “susceptibility interpretation” value is recorded as “R”. Moreover, under setting [2], the “Minimum Inhibitory Concentration” value was above 32 µg/mL and the “susceptibility interpretation” value is “R”. Moreover, under setting [3], the “Minimum Inhibitory Concentration” value is above 32 µg/mL and the “susceptibility interpretation” value was “R”. Moreover, under setting [4], the “Minimum Inhibitory Concentration” value is below 4 µg/mL and the “susceptibility interpretation” value was “S”.
As for `O=C(O)C1=C(CSc2nnnn2CS(=O)(=O)O)CS[C@@H]2[C@H](NC(=O)[C@H](O)c3ccccc3)C(=O)N12` [Cefonicid], the “effect of EDTA added” value was “reversing resistance”. Also, under “Control (No BPI21)”, the “Minimum Inhibitory Concentration” value is above 16 µg/mL and the “susceptibility interpretation” value is reported as “R”. Under setting [1], the “Minimum Inhibitory Concentration” value was above 16 µg/mL and the “susceptibility interpretation” value was “R”. Under setting [2], the “Minimum Inhibitory Concentration” value was below 2 µg/mL and the “susceptibility interpretation” value is “S”. For the same molecule, under setting [3], the “Minimum Inhibitory Concentration” value is below 2 µg/mL and the “susceptibility interpretation” value is recorded as “S”. Also, under setting [4], the “Minimum Inhibitory Concentration” value is below 2 µg/mL and the “susceptibility interpretation” value was “S”.
As to `CCN1CCN(C(=O)N[C@@H](C(=O)N[C@@H]2C(=O)N3C(C(=O)O)=C(CSc4nnnn4C)CS[C@H]23)c2ccc(O)cc2)C(=O)C1=O` [Cefoperazone], the “Minimum Inhibitory Concentration” value is, setting by setting: (Control (No BPI21)) below 4 µg/mL; under setting [1], below 4 µg/mL; under setting [2], below 4 µg/mL; under setting [3], below 4 µg/mL; under setting [4], below 4 µg/mL. Besides, the “susceptibility interpretation” value (Control (No BPI21)) was “S”; the “susceptibility interpretation” value under setting [1] is “S”; the “susceptibility interpretation” value under setting [2] is “S”; the “susceptibility interpretation” value under setting [3] is “S”; the “susceptibility interpretation” value under setting [4] is on record as “S”.
For the molecule `CO/N=C(\C(=O)N[C@@H]1C(=O)N2C(C(=O)O)=C(COC(C)=O)CS[C@H]12)c1csc(N)n1` [Cefotaxime], the “effect of EDTA added” value is given as “increasing the susceptibility”. Where the note is “Control (No BPI21)”, the “Minimum Inhibitory Concentration” value turned out to be 32 µg/mL and the “susceptibility interpretation” value is reported as “I”. In addition, under setting [1], the “Minimum Inhibitory Concentration” value was 16 µg/mL and the “susceptibility interpretation” value was “I”. Under setting [2], the “Minimum Inhibitory Concentration” value came out at 4 µg/mL and the “susceptibility interpretation” value is listed as “S”. Under setting [3], the “Minimum Inhibitory Concentration” value was below 2 µg/mL and the “susceptibility interpretation” value is given as “S”. In addition, under setting [4], the “Minimum Inhibitory Concentration” value is below 2 µg/mL and the “susceptibility interpretation” value was “S”.
For `CO[C@@]1(NC(=O)C2SC(=C(C(N)=O)C(=O)O)S2)C(=O)N2C(C(=O)O)=C(CSc3nnnn3C)CS[C@@H]21` (stereo partly shown) [Cefotetan], the “Minimum Inhibitory Concentration” value was above 32 µg/mL (Control (No BPI21)); above 32 µg/mL under setting [1]; below 4 µg/mL under setting [2]; below 4 µg/mL under setting [3]; below 4 µg/mL under setting [4]. Also, the “susceptibility interpretation” value by setting is: (Control (No BPI21)) “R”; under setting [1], “R”; under setting [2], “S”; under setting [3], “S”; under setting [4], “S”.
With `C[C@@H](O)[C@H]1C(=O)N2C(C(=O)O)=C(SCCN=CN)C[C@H]12` [Imipenem], the “Minimum Inhibitory Concentration” value by setting is: (Control (No BPI21)) 1 µg/mL; under setting [1], 1 µg/mL; under setting [2], below 0.5 µg/mL; under setting [3], below 0.5 µg/mL; under setting [4], below 0.5 µg/mL. For the same molecule, the “susceptibility interpretation” value by setting is: (Control (No BPI21)) “S”; under setting [1], “S”; under setting [2], “S”; under setting [3], “S”; under setting [4], “S”.
